Where a chain is given by its changes, count along the chain named.

What all share (assay): Two-electrode voltage clamp, ACh-dependent (m2R-dependent) K+ current activation
Holding throughout (format): cell-based
In general terms: Two-electrode voltage clamp holds a large cell at a set potential and records current.

Assay [1] deals with T1, Kir3.2 M313S (Mus musculus, UniProt P48542, I313S).
T1 sequence (P48542 19-425 I313S): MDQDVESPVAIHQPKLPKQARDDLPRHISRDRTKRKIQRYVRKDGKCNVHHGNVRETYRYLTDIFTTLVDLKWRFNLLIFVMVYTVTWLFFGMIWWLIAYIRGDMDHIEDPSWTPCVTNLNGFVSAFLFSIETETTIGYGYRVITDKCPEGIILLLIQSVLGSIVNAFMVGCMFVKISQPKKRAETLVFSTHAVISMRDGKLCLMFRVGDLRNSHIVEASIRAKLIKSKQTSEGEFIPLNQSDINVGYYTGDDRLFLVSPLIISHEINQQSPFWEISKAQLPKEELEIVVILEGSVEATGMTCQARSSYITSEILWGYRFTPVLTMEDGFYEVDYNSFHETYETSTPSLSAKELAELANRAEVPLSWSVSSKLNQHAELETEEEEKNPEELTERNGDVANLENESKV
T1 sequence (P06199 1-466 partner): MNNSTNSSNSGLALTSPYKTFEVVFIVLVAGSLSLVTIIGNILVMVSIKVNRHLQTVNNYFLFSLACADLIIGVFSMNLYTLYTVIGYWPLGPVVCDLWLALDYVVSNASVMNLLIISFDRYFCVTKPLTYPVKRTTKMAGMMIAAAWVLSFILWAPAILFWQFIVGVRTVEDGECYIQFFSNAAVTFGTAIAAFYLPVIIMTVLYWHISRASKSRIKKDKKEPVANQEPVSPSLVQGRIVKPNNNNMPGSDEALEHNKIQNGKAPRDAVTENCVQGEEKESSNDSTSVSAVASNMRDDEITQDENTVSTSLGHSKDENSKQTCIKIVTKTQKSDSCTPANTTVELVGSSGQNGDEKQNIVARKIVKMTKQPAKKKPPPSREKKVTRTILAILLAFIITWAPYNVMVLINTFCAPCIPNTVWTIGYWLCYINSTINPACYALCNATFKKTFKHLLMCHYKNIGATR
The note with it: Kir3.2 M313S with porcine m2R in Xenopus oocytes; −120 mV; Hill equation fit. An excerpt:
(§1) The mouse Kir3.2d isoform was subjected to functional analyses. The amino acid numbers correspond to the longest mouse Kir3.2 isoform. Point mutations were introduced using the QuikChange site-directed mutagenesis kit (Stratagene, La Jolla, CA), and the presence of the mutations was confirmed by direct DNA sequencing. The care of Xenopus laevis was in accordance with the guideline of the Institute of Experimental Animal Sciences, Osaka University. The protocol was approved by the Animal Experiment Committee of Osaka University. The frogs were deeply anesthetized by immersing in 0.2% tricaine methanesulfonate for 20 min at 18°C. A portion of an ovary lobe was surgically removed and incubated with collagenase to remove follicular cells. The oocytes were injected with the cRNAs of Kir3.2 and porcine m2-muscarinic receptor (m2R), and maintained in modified Barth’s solution at 18°C with daily solution changes. Electrophysiological studies were undertaken 48–72 h later at room temperature (20–25°C). Two-electrode voltage-clamp recordings from oocytes were performed using a GeneClamp 500B amplifier (Axon Instruments, Sunnyvale, CA). […] The bath solution contained 40 mM KCl, 50 mM NaCl, 3 mM MgCl2, 0.15 mM niflumic acid, and 5 mM HEPES-KOH (pH 7.4). The currents were recorded in the absence or presence of various concentrations of acetylcholine (ACh). Ba^2+ (3 mM) was added at the end of the recording to estimate the endogenous leak current. The data are expressed as mean values ± standard error of the mean. For the quantitative estimation of ACh-dependent current responses of the wild-type (WT) and mutant channels, the current amplitudes at the end of test pulses at each ACh concentration ([ACh]) were fitted using the following equation:
(§2) I=min+[(max−min)/(1+(EC50/[ACh])^nH)]
(§3) where I is the current amplitude measured at the [ACh], n H is the Hill coefficient, and EC50 is the concentration that induces 50% of the maximal response. […] The values of n H and EC50 were calculated using a non-linear least-squares best fit (SigmaPlot 9; Systat Software). Statistical analyses were performed by one-way ANOVA with post-hoc tests.

Assay [2] has as its target T2, Kir3.2 E236D (Mus musculus, UniProt P48542, E236D).
T2 sequence (P48542 19-425 E236D): T1 sequence (P48542 19-425 I313S) with E218D, S295I
T2 sequence (P06199 1-466 partner): T1 sequence (P06199 1-466 partner)
The note with it: Kir3.2 E236D with porcine m2R in Xenopus oocytes; −120 mV; Hill equation fit.
Excerpt: as §1, §2, §3

The target in assay [3] is T3, Kir3.2 M313R (Mus musculus, UniProt P48542, I313R).
T3 sequence (P48542 19-425 I313R): T1 sequence (P48542 19-425 I313S) with S295R
T3 sequence (P06199 1-466 partner): T1 sequence (P06199 1-466 partner)
The note with it: Kir3.2 M313R with porcine m2R in Xenopus oocytes; −120 mV; Hill equation fit, min not zero.
Excerpt: as §1, §2, §3

As a reminder, the Hill coefficient is a measure of the steepness of the concentration-response curve. For `CC(=O)OCC[N+](C)(C)C` [ACh, acetylcholine], the figures for the Hill coefficient in assay [1], in assay [2] and in assay [3] were 1.04 ± 0.05, 0.74 ± 0.07 and 0.52 ± 0.08, respectively.

The values are drawn from publication PMC3823594, “Conformational Changes Underlying Pore Dilation in the Cytoplasmic Domain of Mammalian Inward Rectifier K^+ Channels” (PLoS ONE, 2013).
